Assay results as given in US12268694B2, “Combination pharmaceutical agents as RSV inhibitors” (Enanta Pharmaceuticals, Inc., priority 2017, dated 2025).
pEC50: −log10 of the molar value.

Test system: genotype A, "Long" strain RSV
Assay: RSV-A assay: CPE protection in HEp-2 cells, ATPlite readout
Format: cell-based, human respiratory syncytial virus
Conditions: HEp-2 cells, RSV-A Long strain, ATPlite readout; read-out: Human RSV-A (“Long” strain) EC50
Outline: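 HEp-2 cells (8,000/well) with 2-fold compound dilutions in duplicate, infected with Long-strain RSV at MOI 0.1 and incubated 5 days. Cell ATP measured by ATPlite luminescence to give EC50; uninfected parallel plate gives CC50.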

SMILES	pEC50
O=C1Nc2ccccc2C(c2ccccc2)=NC1Nc1nnc(-c2c(F)cc(F)cc2N2CCOCC2)o1 (stereo not shown) [Example 171]	< 6.10
O=C1Nc2ccccc2C(c2ccccc2)=NC1Nc1nnc(-c2ncc(F)cc2N2CCOCC2)o1 (stereo not shown) [Example 138]	> 6.40

Same assay, conditions: human respiratory syncytial virus, HEp-2, read-out: Human RSV-A (“Long” strain) EC50

SMILES	pEC50
N#Cc1ccc(-c2nnc(NC3N=C(c4ccccc4)c4ccccc4NC3=O)o2)nc1 (stereo not shown) [Example 24]	6.10 to 6.40
COc1cc(-c2nnc(NC3N=C(c4ccccc4)c4ccccc4NC3=O)o2)ccc1-n1cnc(C)c1 (stereo not shown) [Example 219]	< 6.10
C[C@H]1CN(c2cc(C#N)cnc2-c2nnc(N[C@H]3N=C(c4ccccc4)c4ccccc4NC3=O)o2)CCO1 [Example 329]	> 6.40
O=C1Nc2ccccc2C(c2ccccc2)=N[C@@H]1Nc1nnc(-c2cnn(-c3ccccc3)c2)o1 [Example 350]	6.10 to 6.40
COCCNc1sc(C(F)(F)F)nc1-c1nnc(N[C@H]2N=C(c3ccccc3)c3ccccc3NC2=O)o1 [Example 473]	> 6.40
O=C1Nc2ccccc2C(c2ccccc2)=N[C@@H]1Nc1nnc(-c2ncc(F)cc2N2CC3CCC(C2)O3)o1 [Example 299]	> 6.40
O=C1Nc2ccccc2C(c2ccccc2)=NC1Nc1nnc(-c2cccc(F)c2N2CCOCC2)o1 (stereo not shown) [Example 148]	< 6.10
CC(C)(Cc1ccccc1)c1nnc(NC2N=C(c3ccccc3)c3ccccc3NC2=O)o1 (stereo not shown) [Example 208]	< 6.10
O=C1Nc2ccccc2C(c2ccccc2)=N[C@@H]1Nc1nnc(-c2ncc(C3CC3)cc2N2CC3CCC(C2)O3)o1 [Example 321]	> 6.40
COCCc1cccn2ncc(-c3nnc(N[C@H]4N=C(c5ccccc5)c5ccccc5NC4=O)o3)c12 [Example 411]	< 6.10
CC1(C)C[C@@H]1c1nnc(NC2N=C(c3ccccc3)c3ccccc3NC2=O)o1 (stereo partly shown) [Example 205]	< 6.10
CN1C(=O)C(Nc2nnc(-c3ccc(F)cc3)o2)N=C(c2ccccc2)c2ccccc21 (stereo not shown) [Example 201]	< 6.10
Cc1cc(-c2nnc(N[C@H]3N=C(c4ccccc4)c4ccccc4NC3=O)o2)n(C2CCOCC2)n1 [Example 432]	< 6.10
O=C1Nc2ccccc2C(c2ccccc2)=NC1Nc1cc(-c2ccccc2)cnn1 (stereo not shown) [Example 462]	< 6.10
O=C1Nc2ccccc2C(c2ccccc2)=NC1Nc1nnc(-c2ccncc2N2CCOCC2)o1 (stereo not shown) [Example 142]	6.10 to 6.40
O=C1Nc2ccccc2C(c2ccccc2)=N[C@@H]1Nc1nnc(-c2sc(Br)cc2N2CCOCC2)o1 [Example 182]	> 6.40
O=C1Nc2ccccc2C(c2ccccc2)=N[C@@H]1Nc1nnc(-c2nc3ccccn3c2N2CCOCC2)o1 [Example 163]	< 6.10
CC(C)c1nnc(NC2N=C(c3ccccc3)c3ccccc3NC2=O)o1 (stereo not shown) [Example 188]	< 6.10
N#CCNc1cc(C(F)(F)F)cnc1-c1nnc(N[C@H]2N=C(c3ccccc3)c3ccccc3NC2=O)o1 [Example 331]	< 6.10
O=C1Nc2ccccc2C(c2ccccc2)=N[C@@H]1Nc1nnc(-c2ccc(F)cc2N2CCOCC2)o1 [Example 159]	> 6.40
O=C1Nc2ccccc2C(c2ccccc2)=NC1Nc1nnc(-c2ccc(F)cc2)[nH]1 (stereo not shown) [Example 363]	< 6.10
Cc1ccc(-c2nnc(N[C@H]3N=C(c4ccccc4)c4ccccc4NC3=O)o2)c(N2C3CCC2COC3)n1 [Example 280]	> 6.40
COC[C@@H](C)Nc1sc(C(F)(F)F)nc1-c1nnc(N[C@H]2N=C(c3ccccc3)c3ccccc3NC2=O)o1 [Example 451]	6.10 to 6.40
O=C1Nc2ccccc2C(c2ccccc2)=N[C@@H]1Nc1nnc(-c2ccc(C(F)(F)F)nc2N2C3CCC2COC3)o1 [Example 275]	< 6.10
O=C1Nc2ccccc2C(c2ccccc2)=N[C@@H]1Nc1nnc(-c2cn(-c3ccc(F)cn3)nc2N2CCOCC2)o1 [Example 448]	> 6.40

SMILES	pEC50
N#Cc1ccn2ncc(-c3nnc(N[C@H]4N=C(c5ccccc5)c5ccccc5NC4=O)o3)c2c1 [Example 441]	< 6.10
O=C1Nc2ccccc2C(c2ccccc2)=NC1Nc1ccc(-c2ccc(F)cc2)nn1 (stereo not shown) [Example 374]	< 6.10
O=C1Nc2ccccc2C(c2ccccc2)=NC1Nc1nnc(C2CCOC2)o1 (stereo not shown) [Example 215]	< 6.10
O=C1Nc2ccccc2C(c2ccccc2)=NC1Nc1nnc(CCC(F)(F)F)o1 (stereo not shown) [Example 192]	< 6.10
O=C1Nc2ccccc2C(c2ccccc2)=NC1Nc1nnc(-c2ccncc2N2CCCCC2)o1 (stereo not shown) [Example 141]	< 6.10
CN(c1nnc(-c2ccc(F)cc2)o1)C1N=C(c2ccccc2)c2ccccc2NC1=O (stereo not shown) [Example 209]	< 6.10
O=C1Nc2ccccc2C(c2ccccc2)=N[C@@H]1Nc1nnc(-c2ncc(C(F)(F)F)cc2N2CCOc3ccccc32)o1 [Example 468]	< 6.10
COc1ccc(CN2C(=O)C(C)(N)N=C(c3ccccc3)c3ccccc32)cc1 (stereo not shown) [Example 102]	< 6.10
O=C1Nc2ccccc2C(c2ccccc2)=NC1Nc1nnc(-c2ccccc2C2=CCOCC2)o1 (stereo not shown) [Example 353, 3-((5-(2-(3,6-dihydro-2H-pyran-4-yl)phenyl)-1,3,4-oxadiazol-2-yl)amino)-5-phenyl-1,3-dihydro-2H-benzo[e][1,4]diazepin-2-one]	< 6.10
O=C1Nc2ccccc2C(c2ccc(F)cc2)=NC1Nc1nnc(-c2ccc(F)cc2)o1 (stereo not shown) [Example 382]	< 6.10
O=C1Nc2ccccc2C(c2ccccc2)=N[C@@H]1Nc1nnc(-c2cc3ccccc3nc2N2CCOCC2)o1 [Example 434]	> 6.40
Cc1ccc(-c2nnc(N[C@H]3N=C(c4ccccc4)c4ccccc4NC3=O)o2)c(N2CCOC[C@H]2C)n1 [Example 286]	> 6.40
O=C1Nc2ccccc2C(c2ccccc2)=N[C@@H]1Nc1nnc(-c2oc3ncccc3c2N2CCOCC2)o1 [Example 404]	> 6.40
O=C1Nc2ccccc2C(c2ccccc2)=N[C@@H]1Nc1nnc(-c2ccnn2-c2ccccc2)o1 [Example 349]	< 6.10
O=C1Nc2ccccc2C(c2ccccc2)=N[C@@H]1Nc1nnc(-c2cn(-c3cccnc3)nc2N2CCOCC2)o1 [Example 425]	> 6.40
O=C1Nc2ccccc2C(c2ccccc2)=N[C@@H]1Nc1nnc(-c2cn(C3CCC3)nc2N2CCOCC2)o1 [Example 430]	> 6.40
O=C1Nc2ccccc2C(c2ccccc2F)=NC1Nc1nnc(-c2ccc(F)cc2)o1 (stereo not shown) [Example 379]	< 6.10
COC[C@@H]1CCCN1c1sc(C(F)(F)F)nc1-c1nnc(N[C@H]2N=C(c3ccccc3)c3ccccc3NC2=O)o1 [Example 457]	< 6.10
O=C1Nc2c(F)cccc2C(c2ccccc2)=NC1Nc1nnc(-c2ccc(N3CCOCC3)cc2)o1 (stereo not shown) [Example 356]	6.10 to 6.40
O=C1Nc2ccccc2C(c2ccccc2)=NC1Nc1nnc(-c2cccc(-n3ccnc3)c2)o1 (stereo not shown) [Example 212]	< 6.10
O=C1Nc2ccccc2C(c2ccccc2)=NC1Nc1nnc(-c2cccc(N3CCOCC3)c2)o1 (stereo not shown) [Example 111]	< 6.10
O=C1Nc2ccccc2C(c2ccccc2)=NC1Nc1nnc(-c2cc(C(F)(F)F)cnc2N2CCOCC2)o1 (stereo not shown) [Example 146]	< 6.10
O=C1Nc2ccccc2C(c2ccccc2)=N[C@@H]1Nc1nnc(-c2ccc(N3CCCC3)cc2N2CCOCC2)o1 [Example 317]	> 6.40
C[C@@H]1CN(c2ncccc2-c2nnc(NC3N=C(c4ccccc4)c4ccccc4NC3=O)o2)CCO1 (stereo partly shown) [Example 262]	< 6.10
O=C1Nc2ccccc2C(c2ccccc2)=NC1Nc1nnc(-c2cccnc2N2CC(F)(F)C2)o1 (stereo not shown) [Example 259]	< 6.10
